# US20210392882A1, “METHODS AND COMPOSITIONS FOR IMPROVED INSECT REPELLENCY” (Board of Trustees of Michigan State University, priority 2020, published 2021)
# Tested on: Ae. aegypti mosquitoes
# Assay: Hand-in-cage spatial repellency assay
# Type: in vivo, Aedes aegypti
# Source text: The hand-in-cage assay employed was similar to the hand-in-glove assay described by Boyle et al. (bioRxiv, 060178 (2016)). The setup for the hand-in-cage assay includes a 30 cm×30 cm×30 cm mosquito cage (BioQuip, Rancho Dominguea, Calif.), with a mounted digital camera and a human hand in a modified glove with a screened window. The digital camera (e-con Systems Inc, San Jose, Calif., model: e-CAM51A) for video recording is mounted on the cage top and connected to a laptop computer. A nitrile rubber glove (Ansell Protective Products, Coshoton, Ohio, part number: 37-155) was cut on the back side of the glove to create a window (6 cm×5 cm) (FIG. 1A). A piece of magnetic frame (slightly larger than the dimension of the window) was glued onto the cut window which was used as a base for stacking more magnetic window frames (FIG. 1A; further explained below). One piece of test compound-treated polyester netting (Shason Textile Inc., part number: WS-B532-111, white; slightly larger than the dimension of the window) was placed on this fixed magnetic frame, which was ˜3.0 mm above the glove. The second piece of the netting was untreated and placed ˜6.0 mm above the treated net using a stack of four magnetic frames. The stacked magnetic frames were further secured with a binder clip. The stacking creates sufficient space between the treated net and the untreated net so that mosquitoes that land on the open window were not able to contact treated net, or to contact and pierce skin of a hand in the glove. The hand makes no contact with the treated net.
# The assay was run in a room with humidity between around 50% and temperature between 27° C. to 30° C. Twenty-four hours before an assay, four to nine days-old females (about 40, mated, non-blood fed) were transferred into a mosquito cage. The cage was kept in an incubator where mosquitoes were provided only with water in a cotton ball placed on the top of the cage. Immediately before the assay, one researcher treated pieces of netting with 500 μl test compound dissolved in acetone in a glass Petri dish in an adjacent room. Acetone served a control. After letting acetone evaporate (˜7 min), the researcher assembled and put on a modified glove. In the meantime, a second researcher or a lab assistant transferred the prepared cage from the incubator to a bench in the assay room. Both personnel avoided use of any hand lotions and cosmetic products before an assay and wore white lab coats and gloves during the assay. The hand with the modified glove was introduced into the cage to initiate the assay. Mosquitoes landing on the test window was recorded by the digital camera for five minutes. The number of mosquitoes landing during the second to fifth minutes was counted and recorded. For each cage, solvent (acetone) control was tested first and then followed with a treatment. Data from any cage that gave a low landing number in a control trial were discarded. The time interval of assays between control and treatment was at least 1.5 hours, allowing the mosquitoes to fully recover and residual vapors from experiments to be ventilated out of the room. Percentage repellency was determined for each cage using the following equation:
# Percentage repellency=[1−(cumulative number of mosquitoes landed on the window of treatment/cumulative number of mosquitoes landed on the window of solvent treatment)]×100).
# The spatial repellency of pyrethrum was examined using a hand-in-cage assay (Ogoma et al. PLoS neglected tropical diseases 11, e0005455 (2017)). In this behavioral assay, mosquitoes were attracted to a human hand in a modified glove (FIG. 1A) with a screened window on the back of the glove. The mosquitoes landed on a piece of control mesh secured on the top of the window. Between the control mesh and the hand is another mesh treated with a test compound, with which mosquitoes cannot make direct contact (FIG. 1A).
compound,measurement,setting,value
"CC1(C)C2CCC1(C)C(O)C2 (single isomer, unassigned; (-)) [(−)-borneol]","repellency, Orlando vs orco−/−","10^−2 dilution, FIG. 4I",Orco-mediated
same,effect of (E)-β-farnesene on repellency of the compound,"EBF 4 ppm, P-I 1000 ppm, P-II 1000 ppm, (−)-borneol 100 ppm, ROCK, FIG. 4D",No enhancement
